# Source: ChEMBL document CHEMBL1124621, “Inhibition of mammalian folylpolyglutamate synthetase and human dihydrofolate reductase by 5,8-dideaza analogues of folic acid and aminopterin bearing a terminal L-ornithine” (J Med Chem, 1989)
# Legend:
# [1] = species: Sus scrofa; test: Maximal elimination rate of metabolism for hog liver folyl-poly-glutamate synthetase was evaluated; assay type: ADME; design: unit not given here; details: pig
# [2] = system: folylpolyglutamate synthetase; test: (§1) Km for hog liver folyl-poly-glutamate synthetase was evaluated; assay type: ADME, Sus scrofa; details: pig, hog liver folylpolyglutamate synthetase
# [3] = target: T1, Dihydrofolate reductase (Homo sapiens, UniProt P00374); test: Inhibition of human dihydrofolate reductase; details: read-out: I50
# T1 sequence (P00374 whole entry): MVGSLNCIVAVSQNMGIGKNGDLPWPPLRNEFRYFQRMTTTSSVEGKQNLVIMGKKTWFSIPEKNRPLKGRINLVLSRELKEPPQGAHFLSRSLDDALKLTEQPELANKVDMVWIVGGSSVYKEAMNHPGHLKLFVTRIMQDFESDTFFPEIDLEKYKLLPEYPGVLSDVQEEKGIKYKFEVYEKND
# [4] = species: Sus scrofa; test: as §1; assay type: ADME; details: pig
Vmax [1],Km [2],IC50 [3],Km [4],SMILES
33,15 µM,,,Nc1nc(O)c2cc(CSc3ccc(C(=O)NC(CCC(=O)O)C(=O)O)cc3)ccc2n1 (stereo not drawn)
25,22 µM,,,Nc1nc(O)c2cc(COc3ccc(C(=O)NC(CCC(=O)O)C(=O)O)cc3)ccc2n1 (stereo not drawn)
50,8.1 µM,,,O=C(O)CCC(NC(=O)c1ccc(SCc2ccc3ncnc(O)c3c2)cc1)C(=O)O (stereo not drawn)
,,430 nM,,NCCCC(NC(=O)c1ccc(NCc2ccc3nc(N)[nH]c(=O)c3c2Cl)cc1)C(=O)O (stereo not drawn)
,,530 nM,,NCCCC(NC(=O)c1ccc(OCc2ccc3nc(N)nc(O)c3c2)cc1)C(=O)O (stereo not drawn)
95,35 µM,,,O=C(O)CCC(NC(=O)c1ccc(OCc2ccc3ncnc(O)c3c2)cc1)C(=O)O (stereo not drawn)
57,0.2 µM,,,Nc1nc(N)c2c(Cl)c(CNc3ccc(C(=O)NC(CCC(=O)O)C(=O)O)cc3)ccc2n1 (stereo not drawn)
68,0.3 µM,100 nM,,Nc1nc(O)c2c(Cl)c(CNc3ccc(C(=O)NC(CCC(=O)O)C(=O)O)cc3)ccc2n1 (stereo not drawn)
,,3 nM,,NCCCC(NC(=O)c1ccc(NCc2ccc3nc(N)nc(N)c3c2Cl)cc1)C(=O)O (stereo not drawn)
,,3800 nM,,NCCCC(NC(=O)c1ccc(OCc2ccc3nc[nH]c(=O)c3c2)cc1)C(=O)O (stereo not drawn)
,,1500 nM,,NCCCC(NC(=O)c1ccc(SCc2ccc3nc(N)[nH]c(=O)c3c2)cc1)C(=O)O (stereo not drawn)
,,3800 nM,,NCCCC(NC(=O)c1ccc(SCc2ccc3ncnc(O)c3c2)cc1)C(=O)O (stereo not drawn)
100,,,7.7 µM,Nc1nc2ncc(CNc3ccc(C(=O)N[C@@H](CCC(=O)O)C(=O)O)cc3)nc2c(=O)[nH]1 (stereo in doubt; form 1) [FOLIC ACID]
61,,,93 µM,Nc1nc2ncc(CNc3ccc(C(=O)N[C@@H](CCC(=O)O)C(=O)O)cc3)nc2c(=O)[nH]1 (stereo in doubt; form 2) [FOLIC ACID]
